Key:
[1] = system: corticosterone-treated mice; test: Locomotor activity in corticosterone-treated mice; format: in vivo, mouse; conditions: 4 min
Method: The locomotor activity of mice was measured as previously described. We used photoresistor actometers (Ugo Basile, Italy) connected to a counter for the recording of light-beam interruptions. Mice were placed individually in cages for 30 min, and the number of crossings of the light beams was recorded as the locomotor activity for 4 min.
Mice were injected with corticosterone (sc, 20 mg/kg) at random times during the light phase for 21 days. The dose and route of administration of corticosterone were based on our previous study. Control mice received saline containing 0.1% dimethyl sulfoxide (DMSO) and 0.1% Tween (sc). For the next 21 days, 30 min before the corticosterone injection, mice were injected with saline, HBK-10 (0.625 or 1.25 mg/kg), or fluoxetine (15 mg/kg) (ip). Twenty-four hours after the last injection, animals were tested in the forced swim test and locomotor activity test (Figure 8).

[2] = system: mice; test: Forced swim test in naive mice; format: in vivo, mouse
Method: Adult male Albino-Swiss mice (CD-1, 8 weeks old, 18–21g: Jagiellonian University Medical College, Krakow, Poland) were used in all experiments. Unless stated otherwise, the animals were kept in groups of 10 mice in standard cages (37 cm × 21 cm × 15 cm) at a room temperature (22 ± 2 °C), on a 12 h light/dark cycle (lights on 7:00) with ad libitum access to food and water. Mice were used only once in each test. Behavioral experiments were performed between 8 am and 4 pm and evaluated by a trained observer blind to the treatments. Mice were handled for 1 week before starting the experimental procedures. Animals were randomly allocated to the treatment using a computer-generated sequence, and researchers making measurements on the animals or analyzing the results were blind to the allocation. Moreover, experimental groups were distributed across multiple cages, and the location of the mouse cages in the room was changed following each day.
HBK-10, WAY-100635 (Sigma, Darmstadt, Germany), p-chlorophenylalanine (pCPA; Sigma, Darmstadt, Germany), fluoxetine (Sigma, Darmstadt, Germany), reboxetine (Sigma, Darmstadt, Germany) and bupropion (Sigma, Darmstadt, Germany), were suspended in 1% Tween, and administered ip at a volume of 10 mL/kg 30 min before each behavioral test. The control groups received saline ip 30 min prior to testing. The doses of fluoxetine, reboxetine and bupropion as well as WAY-100635 and pCPA were based on our previous studies with 2-methoxyphenylpiperazine derivatives.
The experiment was performed on mice according to the method described by Porsolt et al. and as previously described. Mice were placed individually in glass cylinders (height 25 cm, diameter 10 cm) filled with water at 24 ± 1 °C to a depth of 10 cm and left there for 6 min. Following a 2 min habituation period, total time spent immobile was recorded during the next 4 min. The animal was considered as immobile when it remained floating passively in the water, making only small movements to keep its head above the water. The experiments were video-recorded and scored using elevenmaze.com software by a trained observer blind to the treatments.
To assess the involvement of a serotonergic system in the antidepressant-like activity of tested compounds in the forced swim test, the mice were pretreated with pCPA (tryptophan hydroxylase inhibitor) according to the method previously described. […]. Twenty-four hours after the last pCPA administration, we injected mice with 1% Tween ip or tested compound. We performed the forced swim test 30 min after the administration.
The putative involvement of 5-HT1A receptors in the antidepressant-like effect of tested compound was studied using WAY-100635 (a selective 5-HT1A receptor antagonist). WAY-100635 at a dose of 0.1 mg/kg was administered sc 15 min prior to the injection of HBK-10. After 30 min the forced swim test was performed. The behaviorally ineffective dose of WAY-100635 used in the experiments was based on our previous experiments.

[3] = target: T1, serotonin transporter (SERT) (Rattus norvegicus, UniProt P31652); test: Radioligand binding, [3H]-citalopram, rat cortex tissue; conditions: mean ± SEM, read-out: Serotonergic pKi SERT (converted)
T1 construct: from tissue; host or cells: rat cortex
T1 sequence (P31652 whole entry): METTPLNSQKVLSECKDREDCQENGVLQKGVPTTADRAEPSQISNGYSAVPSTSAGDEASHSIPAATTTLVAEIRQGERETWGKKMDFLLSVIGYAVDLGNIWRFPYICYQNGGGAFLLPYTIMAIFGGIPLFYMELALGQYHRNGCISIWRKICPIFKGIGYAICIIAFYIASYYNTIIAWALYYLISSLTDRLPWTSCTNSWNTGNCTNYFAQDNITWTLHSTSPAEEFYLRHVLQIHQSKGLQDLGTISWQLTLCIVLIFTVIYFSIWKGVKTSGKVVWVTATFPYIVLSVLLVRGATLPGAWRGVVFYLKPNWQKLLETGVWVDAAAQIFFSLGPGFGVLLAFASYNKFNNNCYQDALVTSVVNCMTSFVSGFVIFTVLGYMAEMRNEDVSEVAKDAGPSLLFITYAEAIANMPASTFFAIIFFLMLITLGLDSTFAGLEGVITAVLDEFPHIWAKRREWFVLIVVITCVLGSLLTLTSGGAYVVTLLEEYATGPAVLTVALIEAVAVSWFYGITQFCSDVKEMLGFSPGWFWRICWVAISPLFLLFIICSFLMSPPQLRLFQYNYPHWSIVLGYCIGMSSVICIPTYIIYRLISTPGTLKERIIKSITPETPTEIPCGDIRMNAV
Method: Radioligand binding was performed on membranes from CHO-K1 cells stably transfected with the human 5-HT1A, 5-HT2A, 5-HT6, or 5-HT7 receptors. […] Binding experiments were conducted in 96-well microplates, and the reaction mix included the solution of the test compound, radioligand, and diluted membranes or the tissue suspension.
The reaction was terminated by rapid filtration through GF/B or GF/C filter mate presoaked with 0.3% polyethyleneimine for 30 min. Ten rapid washes with 200 µl 50 mM Tris buffer (4 °C, pH 7.4) were performed using an automated harvester system Harvester-96 MACH III FM (Tomtec). […] Radioactivity was counted in the MicroBeta2 scintillation counter (PerkinElmer) at approximately 30% efficiency. […] A single assay was performed with each compound concentrations in duplicate, and the whole assay was repeated in a three independent experiments.

**Q.** Which results are given for `CCC(CN1CCN(c2ccccc2OC)CC1)NCCCOc1c(C)cccc1C.Cl.Cl` (stereo not shown) [HBK-10, N-(3-(2,6-dimethylphenoxy)propyl)-1-(4-(2-methoxyphenyl)piperazin-1-yl)butan-2-amine dihydrochloride]?
**A.** Number of Crossings ± SEM ([1]; 0.625 mg/kg ip chronic): 431.1 ± 47.92; Number of Crossings ± SEM ([1]; 1.25 mg/kg ip chronic): 453.9 ± 41.27; Reduction of immobility in the forced swim test ([2]; 1.25 mg/kg ip, WAY-100635 experiment, no pretreatment): 35.7%; Reduction of immobility in the forced swim test ([2]; 1.25 mg/kg ip, pCPA experiment, no pretreatment): 28.1%; Reduction of immobility in the forced swim test ([2]; 1st of five values, dose range 1.25–10 mg/kg ip, 30 min before test (lowest dose 1.25 mg/kg)): 21.1%; Reduction of immobility in the forced swim test ([2]; 2nd of five values, dose range 1.25–10 mg/kg ip, dose not given): 23.5%; Reduction of immobility in the forced swim test ([2]; 3rd of five values, dose range 1.25–10 mg/kg ip, dose not given): 26.6%; Reduction of immobility in the forced swim test ([2]; 4th of five values, dose range 1.25–10 mg/kg ip, dose not given): 44.2%; Reduction of immobility in the forced swim test ([2]; 5th of five values, dose range 1.25–10 mg/kg ip (highest dose 10 mg/kg)): 47.2%; Effect on immobility in the forced swim test, combined administration ([2]; HBK-10 0.625 mg/kg combined with bupropion 2.5 mg/kg, ip): did not significantly decrease the immobility; Decrease of immobility in the forced swim test, combined administration ([2]; HBK-10 0.625 mg/kg combined with fluoxetine 10 mg/kg, ip): 40.9%; Decrease of immobility in the forced swim test, combined administration ([2]; HBK-10 0.625 mg/kg combined with reboxetine 5 mg/kg, ip): 57.7%; Antidepressant-like effect in the forced swim test after pCPA pretreatment ([2]; HBK-10 1.25 mg/kg ip after pCPA 200 mg/kg for three days): abolished; Antidepressant-like effect in the forced swim test after WAY-100635 pretreatment ([2]; HBK-10 1.25 mg/kg ip, WAY-100635 0.1 mg/kg sc 15 min before): abolished; Active dose in the forced swim test, fold lower than escitalopram ([2]; comparator data ref 19, 42): 2 fold; Active dose in the forced swim test, fold lower than reboxetine ([2]; comparator data ref 19, 42): 8 fold; Activity in the forced swim test at 0.625 mg/kg ([2]; naive mice, 0.625 mg/kg, single administration): inactive; Lowest active dose in the forced swim test ([2]; naive mice, single administration): 1.25 mg/kg; Ki [3]: 3.72 µM

From article PMC8400343, “Synthesis and Evaluation of the Antidepressant-like Properties of HBK-10, a Novel 2-Methoxyphenylpiperazine Derivative Targeting the 5-HT1A and D2 Receptors” (Pharmaceuticals, 2021)
